Source: patent US20140302113A1, “SYSTEMS, DEVICES, AND METHODS FOR EMBEDDING DRUG MOLECULES INTO MEDICAL CATHETERS OR TUBES” (priority 2011, published 2014)
Read-outs that look alike come from different tables or passages of the source.

How the values were obtained:
[1] = solution with pH about 7.4; cited from earlier work
[2] = Foley catheter of Example 6
Description: The tip and the discharge end were discarded because they would not be expected to touch the patient's mucosa during the catheter use. […] The holes on both ends of each of the four catheter sections were blocked. Each of the four catheter sections was placed into a glass scintillation vial. A 0.15 M PBS solution with pH 7.4 was used as release medium. 20.7 mL of the medium was added into the vial to submerge the entire catheter section. The vial was closed tightly and a vinyl tape was wrapped around the cap to prevent solvent evaporation. The vial was placed into a 37° C. water bath with no shaking (mimicking human use), and the time was set as t=0. […] The catheter sections was removed from the vial, dried with a tissue, and placed into a new vial with the same amount of release medium. The new vial was then put back into the same water bath. This process was repeated at each time point. The samples were analyzed with HPLC.

[3] = format: physicochemical; conditions: loaded catheter in Example 4
Description: 0.16 g of chlorhexidine diacetate was dissolved in 15.8 gram distilled water in a glass jar to form a clear solution. A section of a silicone coated latex Foley catheter (Bardia Foley Catheter, 16 Fr. Reorder No. 123516A, Lot MYUDR067), approximately 16 cm long, was placed into the jar and completely submerged in the solution. 0.08 g of a 10 wt % NaOH solution was added into the loading solution to increase the pH. […] The jar was closed with a cap and placed into an oven with temperatures cycling between about 62° C. and 68° C. The jar was kept in the oven for the next 120 hours and was shaken occasionally during the 120 hour heat treatment period.
The release rates of chlorhexidine from the loaded catheter in Example 4 were measured as follows. The catheter section was thoroughly washed and cut into two pieces, Section A (7.774 cm) and Section B (8.055 cm). Each section was submerged into 17 mL of a 0.15 M pH7.4 phosphate buffer held in a glass vial, which was placed into a 37° C. water bath. At each time point, the catheter section was retrieved from the glass vial, dried, and placed into another glass vial containing 17 mL of a fresh pH 7.4 phosphate buffer. The vial was then placed into the 37° C. water bath. The amount of chlorhexidine in the solution remaining in the first vial was measured with HPLC. This process was repeated at each time point. The average flux of chlorhexidine released from the catheter wall during the period between the current and previous time points was calculated by dividing the total amount of chlorhexidine in the solution (microgram) by the total surface area of the catheter section (cm^2) and by the length of time between the two time points (hour). The result is the amount of chlorhexidine released per square centimeter of the catheter wall per hour. The average chlorhexidine release flux and the average amount of chlorhexidine released from each square centimeter of the catheter wall per 24 hour period are listed in Table 3.

## CC(=O)O.CC(=O)O.NC(=N\CCCCCC/N=C(N)/N=C(\N)Nc1ccc(Cl)cc1)/N=C(\N)Nc1ccc(Cl)cc1 [Chlorhexidine diacetate, chlorhexidine diacetate]
[1]
  concentration that can be dissolved in water: higher than 1.5 wt %

## [H]/N=C(\N/C(=N/[H])NCCCCCCNC(=N)NC(=N)Nc1ccc(Cl)cc1)Nc1ccc(Cl)cc1 [Chlorhexidine, chlorhexidine]
[2]; time 0.17 day
  Average Released Chlorhexidine Amount/cm^2/24 hr: 2.2 micrograms
[2]; time 0.5 day
  Average Released Chlorhexidine Amount/cm^2/24 hr: 3.8 micrograms
[2]; time 1.0 day
  Average Released Chlorhexidine Amount/cm^2/24 hr: 2.8 micrograms
[2]; time 1.5 day
  Average Released Chlorhexidine Amount/cm^2/24 hr: 3.4 micrograms
[2]; time 2 day
  Average Released Chlorhexidine Amount/cm^2/24 hr: 3.2 micrograms
[2]; time 2.5 day
  Average Released Chlorhexidine Amount/cm^2/24 hr: 2.4 micrograms
[2]; time 3.1 day
  Average Released Chlorhexidine Amount/cm^2/24 hr: 1.6 micrograms
[2]; time 3.6 day
  Average Released Chlorhexidine Amount/cm^2/24 hr: 1.5 micrograms
[2]; time 4 day
  Average Released Chlorhexidine Amount/cm^2/24 hr: 1.7 micrograms
[2]; time 4.5 day
  Average Released Chlorhexidine Amount/cm^2/24 hr: 1.0 micrograms
[2]; time 5 day
  Average Released Chlorhexidine Amount/cm^2/24 hr: 1.3 micrograms
[2]; time 5.5 day
  Average Released Chlorhexidine Amount/cm^2/24 hr: 1.0 micrograms
[2]; time 6.5 day
  Average Released Chlorhexidine Amount/cm^2/24 hr: 0.6 micrograms
[2]; time 7 day
  Average Released Chlorhexidine Amount/cm^2/24 hr: 0.7 micrograms
[2]; time 7.5 day
  Average Released Chlorhexidine Amount/cm^2/24 hr: 0.6 micrograms
[2]; time 8 day
  Average Released Chlorhexidine Amount/cm^2/24 hr: 0.5 micrograms
[2]; time 9 day
  Average Released Chlorhexidine Amount/cm^2/24 hr: 0.5 micrograms
[2]; time 9.5 day
  Average Released Chlorhexidine Amount/cm^2/24 hr: 0.5 micrograms
[2]; time 10 day
  Average Released Chlorhexidine Amount/cm^2/24 hr: 0.5 micrograms
[2]; time 11 day
  Average Released Chlorhexidine Amount/cm^2/24 hr: 0.5 micrograms
[2]; time 12 day
  Average Released Chlorhexidine Amount/cm^2/24 hr: 0.5 micrograms
[2]; time 14 day
  Average Released Chlorhexidine Amount/cm^2/24 hr: 0.4 micrograms
[3]
  period with more than 1 microgram of chlorhexidine released from each square centimeter of wall surface per 24 hour: at least 11 days
[3]; time 0.17 day
  Average Chlorhexidine Amount/cm^2/24 hr: 218 micrograms
[3]; time 0.5 day
  Average Chlorhexidine Amount/cm^2/24 hr: 43.9 micrograms
[3]; time 1.1 day
  Average Chlorhexidine Amount/cm^2/24 hr: 21.5 micrograms
[3]; time 1.6 day
  Average Chlorhexidine Amount/cm^2/24 hr: 13.1 micrograms
[3]; time 2 day
  Average Chlorhexidine Amount/cm^2/24 hr: 10.2 micrograms
[3]; time 2.5 day
  Average Chlorhexidine Amount/cm^2/24 hr: 4.5 micrograms
[3]; time 3 day
  Average Chlorhexidine Amount/cm^2/24 hr: 4.3 micrograms
[3]; time 3.5 day
  Average Chlorhexidine Amount/cm^2/24 hr: 2.6 micrograms
[3]; time 4.0 day
  Average Chlorhexidine Amount/cm^2/24 hr: 3.3 micrograms
[3]; time 4.5 day
  Average Chlorhexidine Amount/cm^2/24 hr: 3.2 micrograms
[3]; time 5 day
  Average Chlorhexidine Amount/cm^2/24 hr: 3.2 micrograms
[3]; time 5.5 day
  Average Chlorhexidine Amount/cm^2/24 hr: 2.9 micrograms
[3]; time 6 day
  Average Chlorhexidine Amount/cm^2/24 hr: 2.6 micrograms
[3]; time 6.5 day
  Average Chlorhexidine Amount/cm^2/24 hr: 2.2 micrograms
[3]; time 7 day
  Average Chlorhexidine Amount/cm^2/24 hr: 1.8 micrograms
[3]; time 8 day
  Average Chlorhexidine Amount/cm^2/24 hr: 1.2 micrograms
[3]; time 8.5 day
  Average Chlorhexidine Amount/cm^2/24 hr: 1.4 micrograms
[3]; time 9.0 day
  Average Chlorhexidine Amount/cm^2/24 hr: 1.7 micrograms
[3]; time 10.0 day
  Average Chlorhexidine Amount/cm^2/24 hr: 2.0 micrograms
[3]; time 11 day
  Average Chlorhexidine Amount/cm^2/24 hr: 1.1 micrograms
[3]; time 12 day
  Average Chlorhexidine Amount/cm^2/24 hr: 0.8 micrograms
